Test results from patent US5853742A, “Cosmetic compositions containing lactate dehydrogenase inhibitors” (priority 1997, dated 1998).
Values joined by “and” are separate entries in the source; they are usually repeats but may differ in a detail not shown here. Equal entries are not always repeated. Where two headings read alike, the source gives them in different places.

Legend:
[1] = test system: Neonatal human dermal fibroblasts; assay: Collagen synthesis (secreted procollagen 1 immunoassay); type: cell-based; conditions: 0.2 to 20 mM, 48 hours, serum-free medium
Experimental: Neonatal human dermal fibroblasts were purchased from Clonetics Corp., San Diego, Calif. All materials for cell culture were purchased from Life Technologies, N.Y. Cells were maintained in DMEM with 10% fetal bovine serum and used in passages 5-10, Confluent 96-well plates containing fibroblasts were treated with test materials (0.2 to 20 mM) in serum-free medium for 48 hours. […] This was carried out in a BioDot SF apparatus according to the manufacturer's instructions (BioRad Labs, CA) and the blot was developed using a Vectastain Kit (PK6104, Vector Labs, CA) as per the manufacturer's directions. Color intensity was quantitated using an Ultroscan XL densitometer (Pharmacia LKB). Fold increase was calculated as (density of treated)/untreated.

[2] = test system: Normal human epidermal keratinocytes (NHEK); assay: Keratinocyte proliferation (DNA content, fluorometric); type: cell-based
Experimental: Normal human epidermal keratinocytes (NHEK) derived from neonatal foreskin were used for all experiments. Media were purchased from Clonetics Corp., San Diego, Calif. Cell stocks frozen in passage 2 were grown in Keratinocyte Growth Medium (KGM) and passaged when 70-80% confluent. Cells were seeded in 96 well plates (Corning) at a density of 7500 cells/well in KGM. After 24 hours, cells were rinsed and dosed with test compounds in 200 μl of Keratinocyte Basal Medium (KBM). Plates were incubated for three days at 37° C., 5% CO2. Cell proliferation was estimated by assaying for DNA content by a fluorometric method described by Rago et al. (Analytical Biochemistry, 191:31-34, 1990). Medium was removed and cells were rinsed with phosphate buffered saline solution. 100 μl of sterile distilled water was added to each well and plates were frozen at -70° C. for one and a half hours. Plates were thawed for one hour at which time 100 μl of a 20 ug/ml solution of Bisbenzimide H33258 fluorochrome (Calbiochem Corp., La Jolla, Calif.) was added to each well. The fluorochrome was prepared just prior to use in 10 mM Tris, 1 mM EDTA, 4M NaCl, pH 7.4. Plates were read in a Millipore Cytofluor fluorescent plate reader to quantify DNA (excitation 360 nm, emission 460 nm). Percent increase over control was calculated from blank-corrected readings as (treated-untreated)/(untreated)*100%.

Question: How did the “Maximum fold over Control (collagen synthesis)” value [1] turn out when `O=C(O)CC(=O)C(=O)O` [Oxaloacetate] was run?
Answer: 3.0 fold

Question: What about the activation at 2 µM ([2]; Homo sapiens, NHEK, 72 h, read-out: % Increase Over Control (keratinocyte proliferation), Table 9, oxaloacetate 0.002 mM) of the same molecule?
Answer: 11%

Question: What about the activation at 20 µM ([2]; Homo sapiens, NHEK, 72 h, read-out: % Increase Over Control (keratinocyte proliferation), Table 9, oxaloacetate 0.02 mM) of the same molecule?
Answer: 15%

Question: And the activation at 80 µM ([2]; Homo sapiens, NHEK, 72 h, read-out: % Increase Over Control (keratinocyte proliferation), Table 9, oxaloacetate 0.08 mM)?
Answer: 56%

Question: What about the activation at 200 µM ([2]; Homo sapiens, NHEK, 72 h, read-out: % Increase Over Control (keratinocyte proliferation), Table 9, oxaloacetate 0.2 mM) of the same molecule?
Answer: 22%

Question: And the activation at 2500 µM ([2]; Homo sapiens, NHEK, 72 h, read-out: % Increase Over Control (keratinocyte proliferation), Table 9, oxaloacetate 2.5 mM)?
Answer: 40%

Question: And the activation at 5000 µM ([2]; Homo sapiens, NHEK, 72 h, read-out: % Increase Over Control (keratinocyte proliferation), Table 9, oxaloacetate 5.0 mM)?
Answer: 35%

Question: And the activation at 20000 µM ([2]; Homo sapiens, NHEK, 72 h, read-out: % Increase Over Control (keratinocyte proliferation), Table 9, oxaloacetate 20 mM)?
Answer: 44%

Question: What about the “% Increase Over Control (keratinocyte proliferation)” value ([2]; Table 9, oxaloacetate 0.02 mM) of the same molecule?
Answer: 30%

Question: What about the “% Increase Over Control (keratinocyte proliferation)” value ([2]; Table 9, oxaloacetate 0.2 mM) of the same molecule?
Answer: 20%

Question: What about the “% Increase Over Control (keratinocyte proliferation)” value ([2]; Table 9, oxaloacetate 2.5 mM) of the same molecule?
Answer: 37%

Question: And the “% Increase Over Control (keratinocyte proliferation)” value ([2]; Table 9, oxaloacetate 5.0 mM)?
Answer: 52%

Question: `NC(=O)C(=O)O` [Oxamate] was tested. Which “Maximum fold over Control (collagen synthesis)” value [1] did it give?
Answer: 1.4 fold

Question: And the activation at 25 µM ([2]; Homo sapiens, NHEK, 72 h, Table 3, oxamate 0.025 mM, read-out: % Increase Over Control (keratinocyte proliferation))?
Answer: 20%

Question: What about the activation at 313 µM ([2]; Homo sapiens, NHEK, 72 h, Table 3, oxamate 0.313 mM, read-out: % Increase Over Control (keratinocyte proliferation)) of the same molecule?
Answer: 18%

Question: What about the activation at 1250 µM ([2]; Homo sapiens, NHEK, 72 h, Table 3, oxamate 1.25 mM, read-out: % Increase Over Control (keratinocyte proliferation)) of the same molecule?
Answer: 28%

Question: And the activation at 20000 µM ([2]; Homo sapiens, NHEK, 72 h, Table 3, oxamate 20 mM, read-out: % Increase Over Control (keratinocyte proliferation))?
Answer: 0%

Question: What about the “% Increase Over Control (keratinocyte proliferation)” value ([2]; Table 3, oxamate 0.025 mM) of the same molecule?
Answer: 19%

Question: What about the “% Increase Over Control (keratinocyte proliferation)” value ([2]; Table 3, oxamate 0.313 mM) of the same molecule?
Answer: 32%

Question: What about the “% Increase Over Control (keratinocyte proliferation)” value ([2]; Table 3, oxamate 1.25 mM) of the same molecule?
Answer: 24% and 40%

Question: And the “% Increase Over Control” value ([2]; Table 11, oxamate 2.5 mM, pyruvate 0)?
Answer: 0%

Question: What about the “% Increase Over Control” value ([2]; Table 11, oxamate 5.0 mM, pyruvate 0) of the same molecule?
Answer: 0%

Question: And the “% Increase Over Control” value ([2]; Table 11, oxamate 10 mM, pyruvate 0)?
Answer: 0%

Question: And the “% Increase Over Control” value ([2]; Table 11, oxamate 15 mM, pyruvate 0)?
Answer: 0%

Question: And the “% Increase Over Control” value ([2]; Table 11, oxamate 20 mM, pyruvate 0)?
Answer: 0%

Question: What about the “% Increase Over Control” value ([2]; Table 12, oxamate 0.313 mM, malate 0) of the same molecule?
Answer: 32%

Question: What about the “% Increase Over Control” value ([2]; Table 12, oxamate 0.625 mM, malate 0) of the same molecule?
Answer: 19%

Question: And the “% Increase Over Control” value ([2]; Table 12, oxamate 1.25 mM, malate 0)?
Answer: 40%

Question: And the “% Increase Over Control” value ([2]; Table 12, oxamate 2.5 mM, malate 0)?
Answer: 25%

Question: What about the “% Increase Over Control” value ([2]; Table 12, oxamate 5.0 mM, malate 0) of the same molecule?
Answer: 20%

Question: What about the “% Increase Over Control” value ([2]; Table 12, oxamate 10 mM, malate 0) of the same molecule?
Answer: 0%
